{
  "source": "patent EP2221049A2",
  "about": "“SOLID PHARMACEUTICAL COMPOSITION OF DED ANOSINE” (Blanver Farmoquimica, LTDA, priority 2007, dated 2009)",
  "origin": "cited, not measured here",
  "conditions": "pH below 3, 37°C",
  "data": [
    {"smiles": "OC[C@@H]1CC[C@H](n2cnc3c(O)ncnc32)O1", "note": "[didanosine, 2',3'-dideoxyinosine]", "values": [
      {"measurement": "time period in which 10% of didanosine is decomposed to hypoxanthine", "result": "< 2", "unit": "min"}
    ]}
  ]
}
